Test results published in patent US20220125051A1, “PRE-HARVEST DESICCATION METHOD” (SYNGENTA CROP PROTECTION AG, priority 2019, published 2022).
Where two headings read alike, the source gives them in different places.

Columns and labels:
Assay in all cases: Post-emergence efficacy, Method A
Assay type in all cases: in vivo
[1] = tested on: Ipomoea hederacea (IPOHE); conditions: Ipomoea hederacea, post-emergence, 312 h, evaluated after 13 days
Procedure, shortened: (§1)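 Post-emergence spray on 14-day-old glasshouse plants (24/16 °C day/night, 14 h photoperiod, 65% humidity). Test material was taken up in acetone and IF50 emulsifier mix, then diluted with sodium lauryl ether sulphate (0.25% or 1%) plus 1% ammonium sulphate. Damage was rated 13 days later, 100 = total.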

[2] = tested on: Digitaria sanguinalis (DIGSA); conditions: Digitaria sanguinalis, post-emergence, 312 h, evaluated after 13 days
Procedure, shortened: as §1

[3] = tested on: Amaranthus palmeri (AMAPA); conditions: Amaranthus palmeri, post-emergence, 312 h, evaluated after 13 days
Procedure, shortened: as §1

[4] = tested on: Echinochloa crus-galli (ECHCG); conditions: Echinochloa crus-galli, post-emergence, 312 h, evaluated after 13 days
Procedure, shortened: as §1

Setaria faberi (SETFA) = conditions: Setaria faberi, post-emergence, 312 h, evaluated after 13 days
Procedure, shortened: as §1

[5] = tested on: Chenopodium album (CHEAL); conditions: Chenopodium album, post-emergence, 312 h, evaluated after 13 days
Procedure, shortened: as §1

Eleusine indica (ELEIN) = conditions: Eleusine indica, post-emergence, 312 h, evaluated after 13 days
Procedure, shortened: as §1

Lolium perenne (LOLPE) = conditions: Lolium perenne, post-emergence, 312 h, evaluated after 13 days
Procedure, shortened: as §1

[6] = tested on: Euphorbia heterophylla (EPHHL); conditions: Euphorbia heterophylla, post-emergence, 312 h, evaluated after 13 days
Procedure, shortened: as §1

[7] = Application rate 500 g/Ha, 100=total damage to plant, 0=no damage to plant, read-out: Control of weed species after post-emergence application, IPOHE
[8] = Application rate 500 g/Ha, 100=total damage to plant, 0=no damage to plant, read-out: Control of weed species after post-emergence application, DIGSA
[9] = Application rate 500 g/Ha, 100=total damage to plant, 0=no damage to plant, read-out: Control of weed species after post-emergence application, AMAPA
[10] = Application rate 500 g/Ha, 100=total damage to plant, 0=no damage to plant, read-out: Control of weed species after post-emergence application, ECHCG
[11] = Application rate 500 g/Ha, 100=total damage to plant, 0=no damage to plant, read-out: Control of weed species after post-emergence application, SETFA
[12] = Application rate 500 g/Ha, 100=total damage to plant, 0=no damage to plant, read-out: Control of weed species after post-emergence application, CHEAL
[13] = Application rate 500 g/Ha, 100=total damage to plant, 0=no damage to plant, read-out: Control of weed species after post-emergence application, ELEIN
[14] = Application rate 500 g/Ha, 100=total damage to plant, 0=no damage to plant, read-out: Control of weed species after post-emergence application, LOLPE
[15] = Application rate 500 g/Ha, 100=total damage to plant, 0=no damage to plant, read-out: Control of weed species after post-emergence application, EPHHL
[16] = Application Rate 500 g/Ha, Method A, read-out: Control of weed species after post-emergence application, IPOHE (100=total damage to plant; 0=no damage to plant)
[17] = Application Rate 500 g/Ha, Method A, read-out: Control of weed species after post-emergence application, DIGSA (100=total damage to plant; 0=no damage to plant)
[18] = Application Rate 500 g/Ha, Method A, read-out: Control of weed species after post-emergence application, AMAPA (100=total damage to plant; 0=no damage to plant)
[19] = Application Rate 500 g/Ha, Method A, read-out: Control of weed species after post-emergence application, ECHCG (100=total damage to plant; 0=no damage to plant)
[20] = Application Rate 500 g/Ha, Method A, read-out: Control of weed species after post-emergence application, SETFA (100=total damage to plant; 0=no damage to plant)
[21] = Application Rate 500 g/Ha, Method A, read-out: Control of weed species after post-emergence application, CHEAL (100=total damage to plant; 0=no damage to plant)
[22] = Application Rate 500 g/Ha, Method A, read-out: Control of weed species after post-emergence application, ELEIN (100=total damage to plant; 0=no damage to plant)
[23] = Application Rate 500 g/Ha, Method A, read-out: Control of weed species after post-emergence application, LOLPE (100=total damage to plant; 0=no damage to plant)
[24] = Application Rate 500 g/Ha, Method A, read-out: Control of weed species after post-emergence application, EPHHL (100=total damage to plant; 0=no damage to plant)

| Compound | pest or weed control at 500 g/ha [1, 7] [%] | pest or weed control at 500 g/ha [2, 8] [%] | pest or weed control at 500 g/ha [3, 9] [%] | pest or weed control at 500 g/ha [4, 10] [%] | pest or weed control at 500 g/ha (Setaria faberi (SETFA); [11]) [%] | pest or weed control at 500 g/ha [5, 12] [%] | pest or weed control at 500 g/ha (Eleusine indica (ELEIN); [13]) [%] | pest or weed control at 500 g/ha (Lolium perenne (LOLPE); [14]) [%] | pest or weed control at 500 g/ha [6, 15] [%] | pest or weed control at 500 g/ha [1, 16] [%] | pest or weed control at 500 g/ha [2, 17] [%] | pest or weed control at 500 g/ha [3, 18] [%] | pest or weed control at 500 g/ha [4, 19] [%] | pest or weed control at 500 g/ha (Setaria faberi (SETFA); [20]) [%] | pest or weed control at 500 g/ha [5, 21] [%] | pest or weed control at 500 g/ha (Eleusine indica (ELEIN); [22]) [%] | pest or weed control at 500 g/ha (Lolium perenne (LOLPE); [23]) [%] | pest or weed control at 500 g/ha [6, 24] [%] |
| --- | --- | --- | --- | --- | --- | --- | --- | --- | --- | --- | --- | --- | --- | --- | --- | --- | --- | --- |
| Cc1cnc(-c2cc[n+](CCS(=O)(=O)[O-])nc2)nc1C [Compound A97] | 30 | 90 | 90 | 90 | 90 | 20 | 90 | 70 | 70 | – | – | – | – | – | – | – | – | – |
| O=C(O)CC[n+]1ccc(-c2ncc(Cl)c(=O)[nH]2)cn1 [Compound A161, 3-[4-(5-chloro-6-oxo-1H-pyrimidin-2-yl)pyridazin-1-ium-1-yl]propanoic acid 2,2,2-trifluoroacetate] | – | – | – | – | – | – | – | – | – | 20 | 20 | 30 | 20 | 10 | 70 | 20 | 10 | 50 |
| O=S(=O)([O-])CC[n+]1ccc(-c2ncc(F)cc2F)cn1 [Compound A70] | 20 | 30 | 90 | 30 | 30 | 70 | 20 | 20 | 50 | – | – | – | – | – | – | – | – | – |
| CN(C)S(=O)(=O)[N-]C(=O)C[n+]1ccc(-c2ncccn2)cn1 [Compound A214, dimethylsulfamoyl-[2-(4-pyrimidin-2-ylpyridazin-1-ium-1-yl)acetyl]azanide] | – | – | – | – | – | – | – | – | – | 40 | 100 | 100 | 100 | 90 | 100 | 100 | 80 | 100 |
| COC(=O)CC[n+]1ccc(-c2ccncc2)cn1 [Compound A203] | – | – | – | – | – | – | – | – | – | 20 | 70 | 100 | 50 | 60 | 90 | 60 | 0 | 50 |
| CC(=O)c1ccnc(-c2cc[n+](CCS(=O)(=O)[O-])nc2)n1 [Compound A49] | 60 | 90 | 100 | 60 | 100 | 80 | 100 | 50 | 70 | – | – | – | – | – | – | – | – | – |
